Experiments:
[1] = tested on: retinal retinol dehydrogenases (RDHs); test: Assay for retinal RDH activity in mouse retinal microsomes; format: biochemical; conditions: 2 mM PBN, NADPH-dependent reduction of all-trans-retinal
Method: Assay for retinal RDH activity—The effect of PBN on retinal dehydrogenase (RDH) enzymes was determined in vitro using mouse retinal microsomes. […] Homogenates were centrifuged at 10,000 g for 10 minutes at 4° C. The resulting supernatants were then centrifuged at 100,000 g for 1 hour at 4° C., and microsomal pellets were resuspended in storage buffer [50 mM Tris-Cl (pH 7.2), 1 mM EDTA, 20% glycerol, 1 mM dithiothreitol, and the protease inhibitors described above]. Protein concentrations were measured, and microsomal fractions were stored at −80° C. after snap freezing in liquid nitrogen.
Reactions were carried out in 1 ml reaction buffer [100 mM Tris-HCl (pH 7.2), 200 mM NaCl, 1 mM dithiothreitol, 2 mg/ml bovine serum albumin, and 1% (v/v) glycerol] with 5 μg of microsomes, 0 or 75 μM of NADPH, 0 or 2 mM PBN, and increasing concentrations of the substrate all-trans-retinal. […] Retinoids were extracted with 2 volumes of hexane and analyzed by HPLC. […] The peaks of all-trans-retinal (substrate) and all-trans-retinol (product of the reaction) were identified and quantified by comparison with pure retinoid isomeric standards. […] For each condition the non-enzymatic conversion of all-trans-retinal to all-trans-retinol measured in absence of NADPH was subtracted from the conversion obtained with NADPH to determine the NADPH-dependant activity of retinal RDHs. […]

rhodopsin = test: Rhodopsin regeneration after topical eye drops in mice; format: in vivo, Balb/c mice; conditions: for rhodopsin recovered in 1 h in the dark: 10% PBN eye drops, DA control is 100%
Method: Panel A: Application scheme and harvesting of the eye. 3 h group received 2 applications and 6 h group received 3 applications. Panel B: Rhodopsin content was measured as pmole/eye. In 1 h in the dark, untreated eyes (NT-LA 1 h DA, no treatment-light adapted followed by 1 hour dark adaptation) and vehicle-treated eyes recovered 75-80% rhodopsin [dark-adapted (DA) control is 100%], whereas 3 h PBN recovered only 43% and 6 h PBN only 29%. (***P<0.0001 compared to vehicle, n=8; ##p<0.005 between 3 h and 6 h group, n=8).
An eye drop formulation was used with various absorption enhancers for topical application of PBN to mouse eyes. […] One hour dark adaptation followed by light causes 75-80% recovery of bleachable rhodopsin in the Balb/c mice (FIG. 18B, NT-LA 1 h DA). The eye drop without PBN (vehicle) had no effect on rhodopsin regeneration (FIG. 18B, vehicle).
Eye drop formulations were prepared as described in Example 7 and contained 5% or 10% of a PBN derivative. The eye drop formulations were applied to Balb/c mice by the 6 h group application scheme shown in FIG. 18A, in which the eye drops were applied at 6, 3, and 0 h before dark adaptation. The eye drops were applied to completely light-adapted mouse eyes, and the mice were then moved to the dark for 1 h to allow the regeneration of bleachable rhodopsin. One hour dark adaptation followed by light causes […] recovery of bleachable rhodopsin in untreated mice (00, No Treatment). The eye drop without any nitrones (vehicle) had no effect on rhodopsin regeneration (000, vehicle).

Rat Retina = conditions: 50 mg/kg 0.5 hour before light stress 2,700 lux for 24 hours; earlier publication (1); cited from earlier work

CC(C)(C)/[N+]([O-])=C/c1ccccc1 [Compound 1, α-phenyl-N-tert-butyl nitrone]
inhibition of retinal RDH activity [1]: did not inhibit | rhodopsin recovered in 1 h in the dark (rhodopsin; 3 h group (2 applications)): 43% | rhodopsin recovered in 1 h in the dark (rhodopsin; 6 h group (3 applications)): 29% | % of Rhodopsin recovery (rhodopsin; 10% in eye drop at 6, 3 and 0 h before dark adaptation, LA + 1 h DA, DA control = 100): 48.67% | inhibition of rhodopsin regeneration as eye drop (rhodopsin; eye drop formulation, summary of Table 7): inhibited rhodopsin regeneration significantly | regeneration of bleachable rhodopsin (rhodopsin; one drop (~50 μl) containing 10% PBN, 1 h dark): significantly inhibited | protection of retinal structure and function (Rat Retina): 80-90%

— patent US20130225694A1, “COMPOSITIONS AND METHODS OF INHIBITING RETINAL DEGENERATION” (Oklahoma Medical Research Foundation, priority 2012, published 2013)
